Test system: L-Traf3/PtenDKO mouse
Assay: Oral NIKSMI in L-Traf3/PtenDKO mouse: liver HE staining, KRT19 immunostaining and KRT19 expression
Type: in vivo
Settings: twice a day, 200 mg/kg
Description: A histopathological slide was deparaffinized with xylene and ethanol. HE staining was performed with hematoxylin and eosin. In immunostaining, antigen activation was performed by heating in Target Retrieval Solution (Dako, USA), followed by blocking with bovine serum albumin and a reaction through use of a primary antibody at 4° C. overnight. A frozen section was dried at room temperature, and was blocked with BSA (Nacalai Tesque, Inc., Japan), followed by a reaction through use of a primary antibody in VECTASTAIN ABC Rabbit IgG Kit (Vector Laboratories, Inc., USA). DAB Substrate Kit (Vector Laboratories, Inc., USA) was used in a staining reaction. The following antibodies were used in the immunostaining: KRT19 (1:500 Abcam, ab52625), TRAF3 (1:100 Abcam, ab217033), NIK (1:400 Novus Biologicals, NBP2-23603), p-RIP3K (1:100 Genentech), and KI67 (1:1,000 Cell Signaling, #12202S). […] The number of Ki67-positive cells in a tumor was counted with ImageJ (Fiji). The immunostaining score of TRAF3 or NIK was calculated by multiplying a staining intensity (of from 0 to 3) by a stained area (%). Human ICC patients were grouped into two groups on the basis of the median immunostaining score of TRAF3 or NIK, and were evaluated for their disease-free survival (DFS) or overall survival (OS). […]

Which results are given for COc1cc(C(N)=O)nc(-c2cccc(C#C[C@]3(O)CCN(C)C3=O)c2)c1 [NIKSMI, (R)-6-(3-((3-hydroxy-1-methyl-2-oxopyrrolidin-3-yl)ethynyl)phenyl)-4-methoxypicolinamide]?
overgrowth of a cholangiocyte in liver (HE staining, KRT19 immunostaining) (14 days from age 4 weeks, liver at 6 weeks, FIG. 15A): significantly suppressed; expression level of the bile duct marker KRT19 in the liver (14 days, FIG. 15B): significantly suppressed

— patent US20240285599A1, “Mature-Hepatocyte Transdifferentiation Suppressing Composition” (OSAKA UNIVERSITY, priority 2021, published 2024)
